“And” between values parts separate entries of the source, which are not always exact repeats. Equal entries are not always repeated.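 Results reflect a 48-hour exposure of cells in 96-well plates to compound at five concentrations. GI50: concentration for 50% inhibition of growth. TGI: total growth inhibition.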 Where a SMILES comes first, the peptide text is derived from it. [ ]: non-standard residue; d: D form. The star is where a group is joined. Bn2Val = CC(C)[C@@H](C(=O)*)N(Cc1ccccc1)Cc1ccccc1; NMeV = CN[C@H](C(=O)O)C(C)C; X29 = COc1ccc(CN*)c(OC)c1; dNMeA = CN[C@H](C)C(=O)O; Boc = CC(C)(C)OC(=O)*; OBn = c1ccc(CO*)cc1
Experiments:
Assay in all cases: growth of human tumour cells (NCI), 48 h
[1] = tested on: A498 renal
[2] = tested on: HL-60(TB) leukemia
[3] = tested on: LOX IMVI melanoma
[4] = tested on: M14 melanoma
[5] = tested on: MDA-MB-231 breast
[6] = tested on: NCI-H226 lung
[7] = tested on: SF-295 CNS
[8] = tested on: SN12C renal
[9] = tested on: SW-620 colon
[10] = tested on: UO-31 renal

Compound | TGI [1] [µM] | TGI [2] [µM] | TGI [3] [µM] | TGI [4] [µM] | TGI [5] [µM] | TGI [6] [µM] | TGI [7] [µM] | TGI [8] [µM] | TGI [9] [µM] | TGI [10] [µM] | GI50 [10]
O=C1CC(C(CC(=O)c2ccccc2)c2ccccc2)C(=O)c2ccccc2N1 (stereo unspecified) | > 100 | > 100 | > 100 | > 100 | > 100 | 77.8 | > 100 | > 100 | > 100 | 40.4 | –
COc1ccc(CNC(=O)[C@@H]2CCCN2C(=O)[C@@H](C)N(C)C(=O)[C@H](C(C)C)N(C)C(=O)[C@@H](NC(=O)[C@H](C(C)C)N(Cc2ccccc2)Cc2ccccc2)C(C)C)c(OC)c1 (Bn2Val-V[NMeV][dNMeA]P-X29) | 8.69 | 2.8 | 7.13 | 10.5 | 3.46 | 22.1 | 10.7 | 3.25 | 20.6 | 12 | –
[O-][n+]1c(CN2CCCCC2)nc2cccc3c2c1-c1ccccc1-3 | 38.3 | > 100 | 46.8 | 31.3 | 95.6 | 39.8 | 84 | 46.1 | > 100 | 26.3 | –
CC(C)(C)CC(C)(C)NC(=S)NO | > 100 | > 100 | > 100 | > 100 | > 100 | > 100 | > 100 | > 100 | > 100 | > 100 | –
O=c1[nH]c(=O)n(COCCO)c2ccsc12 | > 100 | > 100 | > 100 | > 100 | > 100 | > 100 | > 100 | > 100 | > 100 | > 100 | –
COC(=O)c1c(C)cccc1C1CN=NC12Cc1ccc(C)c(C)c1C2=O (stereo unspecified) | > 100 | 28.6 | > 100 | 96.2 | > 100 | > 100 | > 100 | > 100 | > 100 | > 100 | –
Cc1ccc(NC2=NCCO2)c2c1CCC2 | > 100 | 39.9 | 76 | 57 | 69.4 | > 100 | > 100 | > 100 | > 100 | > 100 | –
CS[C@]12[C@@H]3C(=O)N(C)C(=O)[C@@H]3[C@](C)(C(=O)N1C)C(=O)N2c1ccccc1 | > 100 | > 100 | > 100 | > 100 | > 100 | > 100 | > 100 | > 100 | > 100 | > 100 | –
CO[C@H]1O[C@@H]2CO[C@@H](c3ccccc3)O[C@H]2[C@@H]2C/C=C\CCC[C@@]12O | 29 | 51.2 | 32.4 | 45.9 | 68.4 | 40 | 42 | 32.5 | 81.6 | > 100 | –
CCOc1ccc(N=NC2C(=O)N(C(=O)CC(=O)Nc3ccccc3)N=C2C)cc1 (stereo unspecified) | > 100 | > 100 | > 100 | > 100 | > 100 | > 100 | > 100 | > 100 | > 100 | > 100 | –
CC(C)CC(NC(=O)OC(C)(C)C)C(=O)NC(CC(=O)OCc1ccccc1)C(=O)OCc1ccccc1 (stereo not drawn) (Boc-Leu-Asp(OBn)-OBn; configuration not given here) | > 100 | > 100 | 49.7 | 38.6 | > 100 | > 100 | > 100 | 50.9 | > 100 | 75 | –
O=C1CC(C(OCc2ccccc2)C(OCc2ccccc2)C(COCc2ccccc2)OCc2ccccc2)CC(=O)N1 (stereo unspecified) | > 100 | > 100 | > 100 | > 100 | > 100 | > 100 | > 100 | > 100 | > 100 | > 100 | > 100 µM and 45.7 µM
O=C(O)CC[P+](c1ccccc1)(c1ccccc1)c1ccccc1 | > 100 | 80.8 | > 100 | > 100 | > 100 | > 100 | > 100 | 54.7 | > 100 | > 100 | –
CN(C)c1ccc(/C=C/C(=O)N[C@@H]2C(=O)N3[C@@H]2SC(C)(C)[C@@H]3C(=O)O)cc1 | > 100 | > 100 | > 100 | > 100 | > 100 | > 100 | > 100 | > 100 | > 100 | > 100 | –
CN1N=C(c2ccncc2)OC1c1cccc(C(F)(F)F)c1 (stereo unspecified) | > 100 | > 100 | > 100 | > 100 | > 100 | > 100 | > 100 | > 100 | > 100 | > 100 | –
N=C(N)SCCC(=O)CCSC(=N)N | > 100 | > 100 | > 100 | > 100 | > 100 | > 100 | > 100 | > 100 | > 100 | > 100 | –

— PubChem BioAssay (NCI)
